How the values were obtained:
Experiment in all cases: Challenge testing against pathogenic fungi, growth rating in broth tubes
Format in all cases: cell-based
Set-up in all cases: key: 0: No visible growth; 1: Some growth in tube; 2: Moderate growth in tube; 3: Good growth in tube; 4: Extreme growth in tube
[1] = tested on: Malassezia furfur (ATCC 96809)
Protocol: (§1) Both Microsporum canis and Trichophyton rubrum were grown on Sabouraud dextrose broth, while Malassezia fufur was grown in Sabouraud dextrose broth supplemented with 2% (v/v) of olive oil and 0.2% (v/v) of Tween™ 80; incubation was at 22°±2° C. under continuous agitation by stirring for 10 days. The organisms were grown to a density of between 1.0×10^3 to 1.0×10^4 cfu/g. The actual inoculation cell density of these challenges were determined by diluting in sterile buffer water and (spread-plate method) plating for enumeration.
(§2) Challenge organisms were used to inoculate tubes of 1,4-CHDM-D90 test concentrations prepared in Sabouraud dextrose broth (or Sabouraud dextrose broth supplemented with olive oil-Tween™ 80 with M. furfur). The inoculations were in the amount of 1.5 mL aliquots of each culture with static incubation at 22±2° C. Subcultures were made at 3-, 14- and 30-day increments. All challenges were conducted in triplicate. In the case of M. canis, the growth response was assessed by the visual presence/absence of growth in the tubes; in the case of T. rubrum, a respiratory (redox) dye (0.2% w/v aqueous INT solution: 2-[4-iodophenyl)-3-4-nitrophenyl]-5-phenyl tetrazolium chloride) was added to the tubes, turning red if the organism was viable; and, finally, in the case of M. furfur, the growth response was assessed based upon pellicle formation in the tubes at the meniscus. The test formulations and challenge test results, as well as 30-day MICs (Minimum Inhibitory Concentration), are in Tables 7-9 for the three organisms using the following growth rating system:
(§3) • 0: No visible growth • 1: Some growth in tube • 2: Moderate growth in tube • 3: Good growth in tube • 4: Extreme growth in tube

[2] = tested on: Microsporum canis (ATTC 9084)
Protocol: as §1, §2, §3

[3] = tested on: Trichophyton rubrum (ATCC 10218)
Protocol: as §1, §2, §3

| Structure (SMILES) | M. furfur growth rating, 3 day ([1]; 0.5% weight/volume) | M. furfur growth rating, 14 day ([1]; 0.5% weight/volume) | M. furfur growth rating, 30 day ([1]; 0.5% weight/volume) | M. furfur growth rating, 3 day ([1]; 1.25% weight/volume) | M. furfur growth rating, 14 day ([1]; 1.25% weight/volume) | M. furfur growth rating, 30 day ([1]; 1.25% weight/volume) | M. furfur growth rating, 3 day ([1]; 2.5% weight/volume) | M. furfur growth rating, 14 day ([1]; 2.5% weight/volume) | M. furfur growth rating, 30 day ([1]; 2.5% weight/volume) | M. furfur growth rating, 3 day ([1]; 5.0% weight/volume) | M. furfur growth rating, 14 day ([1]; 5.0% weight/volume) | M. furfur growth rating, 30 day ([1]; 5.0% weight/volume) | M. canis growth rating, 3 day ([2]; 0.5% weight/volume) | M. canis growth rating, 14 day ([2]; 0.5% weight/volume) | M. canis growth rating, 30 day ([2]; 0.5% weight/volume) | M. canis growth rating, 3 day ([2]; 1.25% weight/volume) | M. canis growth rating, 14 day ([2]; 1.25% weight/volume) | M. canis growth rating, 30 day ([2]; 1.25% weight/volume) | M. canis growth rating, 3 day ([2]; 2.5% weight/volume) | M. canis growth rating, 14 day ([2]; 2.5% weight/volume) | also measured |
| --- | --- | --- | --- | --- | --- | --- | --- | --- | --- | --- | --- | --- | --- | --- | --- | --- | --- | --- | --- | --- | --- |
| CC(O)CO (stereo not drawn) [PG, propylene glycol] | 0 | 3 | 3 | 0 | 3 | 3 | 0 | 3 | 3 | 0 | 0 | 3 | 2 | 1 | 2 | 2 | 1 | 1 | 1 | 1 | M. canis growth rating, 30 day ([2]; 2.5% weight/volume): 2; M. canis growth rating, 3 day ([2]; 5.0% weight/volume): 1; M. canis growth rating, 14 day ([2]; 5.0% weight/volume): 1; M. canis growth rating, 30 day ([2]; 5.0% weight/volume): 2; T. rubrum growth rating, 3 day ([3]; 0.5% weight/volume): 0; T. rubrum growth rating, 14 day ([3]; 0.5% weight/volume): 1; T. rubrum growth rating, 30 day ([3]; 0.5% weight/volume): 1; T. rubrum growth rating, 3 day ([3]; 1.25% weight/volume): 1; T. rubrum growth rating, 14 day ([3]; 1.25% weight/volume): 0; T. rubrum growth rating, 30 day ([3]; 1.25% weight/volume): 1; T. rubrum growth rating, 3 day ([3]; 2.5% weight/volume): 1; T. rubrum growth rating, 14 day ([3]; 2.5% weight/volume): 0; T. rubrum growth rating, 30 day ([3]; 2.5% weight/volume): 1; T. rubrum growth rating, 3 day ([3]; 5.0% weight/volume): 1; T. rubrum growth rating, 14 day ([3]; 5.0% weight/volume): 0; T. rubrum growth rating, 30 day ([3]; 5.0% weight/volume): 1 |
| CC1(C)C(O)C(C)(C)C1O (stereo not drawn) [TMCBD, 2,2,4,4-tetramethyl-1,3-cyclobutanediol] | 0 | 1 | 2 | 0 | 1 | 2 | 0 | 0 | 0 | 0 | 0 | 0 | 2 | 1 | 1 | 2 | 1 | 0 | 2 | 1 | M. canis growth rating, 30 day ([2]; 2.5% weight/volume): 1; M. canis growth rating, 3 day ([2]; 5.0% weight/volume): 2; M. canis growth rating, 14 day ([2]; 5.0% weight/volume): 1; M. canis growth rating, 30 day ([2]; 5.0% weight/volume): 1; T. rubrum growth rating, 3 day ([3]; 0.5% weight/volume): 1; T. rubrum growth rating, 14 day ([3]; 0.5% weight/volume): 1; T. rubrum growth rating, 30 day ([3]; 0.5% weight/volume): 0; T. rubrum growth rating, 3 day ([3]; 1.25% weight/volume): 0; T. rubrum growth rating, 14 day ([3]; 1.25% weight/volume): 0; T. rubrum growth rating, 30 day ([3]; 1.25% weight/volume): 1; T. rubrum growth rating, 3 day ([3]; 2.5% weight/volume): 0; T. rubrum growth rating, 14 day ([3]; 2.5% weight/volume): 0; T. rubrum growth rating, 30 day ([3]; 2.5% weight/volume): 0; T. rubrum growth rating, 3 day ([3]; 5.0% weight/volume): 0; T. rubrum growth rating, 14 day ([3]; 5.0% weight/volume): 0; T. rubrum growth rating, 30 day ([3]; 5.0% weight/volume): 0 |
| OCC1CCC(CO)CC1 (stereo not drawn) [1,4-CHDM, 1,4-cyclohexanedimethanol] | 0 | 1 | 2 | 0 | 0 | 0 | 0 | 0 | 0 | 0 | 0 | 0 | 2 | 1 | 1 | 2 | 1 | 1 | 2 | 0 | M. canis growth rating, 30 day ([2]; 2.5% weight/volume): 0; M. canis growth rating, 3 day ([2]; 5.0% weight/volume): 0; M. canis growth rating, 14 day ([2]; 5.0% weight/volume): 0; M. canis growth rating, 30 day ([2]; 5.0% weight/volume): 0; T. rubrum growth rating, 3 day ([3]; 0.5% weight/volume): 1; T. rubrum growth rating, 14 day ([3]; 0.5% weight/volume): 1; T. rubrum growth rating, 30 day ([3]; 0.5% weight/volume): 1; T. rubrum growth rating, 3 day ([3]; 1.25% weight/volume): 0; T. rubrum growth rating, 14 day ([3]; 1.25% weight/volume): 0; T. rubrum growth rating, 30 day ([3]; 1.25% weight/volume): 0; T. rubrum growth rating, 3 day ([3]; 2.5% weight/volume): 0; T. rubrum growth rating, 14 day ([3]; 2.5% weight/volume): 0; T. rubrum growth rating, 30 day ([3]; 2.5% weight/volume): 0; T. rubrum growth rating, 3 day ([3]; 5.0% weight/volume): 1; T. rubrum growth rating, 14 day ([3]; 5.0% weight/volume): 0; T. rubrum growth rating, 30 day ([3]; 5.0% weight/volume): 0 |
| O=C([O-])CN(CCN(CC(=O)[O-])CC(=O)O)CC(=O)O.[Na+].[Na+] [EDTA, Na2EDTA] | 0 | 0 | 0 | 0 | 0 | 0 | 0 | 0 | 0 | 0 | 0 | 0 | 2 | 1 | 0 | 2 | 1 | 0 | 2 | 1 | M. canis growth rating, 30 day ([2]; 2.5% weight/volume): 0; M. canis growth rating, 3 day ([2]; 5.0% weight/volume): 2; M. canis growth rating, 14 day ([2]; 5.0% weight/volume): 0; M. canis growth rating, 30 day ([2]; 5.0% weight/volume): 0; T. rubrum growth rating, 3 day ([3]; 0.5% weight/volume): 1; T. rubrum growth rating, 14 day ([3]; 0.5% weight/volume): 0; T. rubrum growth rating, 30 day ([3]; 0.5% weight/volume): 0; T. rubrum growth rating, 3 day ([3]; 1.25% weight/volume): 0; T. rubrum growth rating, 14 day ([3]; 1.25% weight/volume): 0; T. rubrum growth rating, 30 day ([3]; 1.25% weight/volume): 0; T. rubrum growth rating, 3 day ([3]; 2.5% weight/volume): 1; T. rubrum growth rating, 14 day ([3]; 2.5% weight/volume): 0; T. rubrum growth rating, 30 day ([3]; 2.5% weight/volume): 0; T. rubrum growth rating, 3 day ([3]; 5.0% weight/volume): 1; T. rubrum growth rating, 14 day ([3]; 5.0% weight/volume): 0; T. rubrum growth rating, 30 day ([3]; 5.0% weight/volume): 0 |

Reference: patent US20100160454A1, “ANTIMICROBIAL AGENTS, COMPOSITIONS AND PRODUCTS CONTAINING THE SAME, AND METHODS OF USING THE COMPOSITIONS AND PRODUCTS” (Eastman Chemical Company, priority 2008, published 2010)
